Reference: US10597735B2, “Antibacterial and plasmid elimination agents” (priority 2006, dated 2020)
Values after ≈ are worked out from the molar mass of the structure shown. “Also recorded” adds a separate entry of the source. Like-named read-outs stand apart in the source and are kept apart here. Where a SMILES comes first, the peptide text is derived from it.

Legend:
[1] = tested on: GFP-tag degradation by ClpXP; experiment: In vivo screen: GFP-tag reporter fluorescence in E. coli producing the cyclic peptide from a SICLOPPS plasmid, epifluorescence microscopy (Example 3); type: cell-based
Description: Screen for inhibitors of the tmRNA pathway: E. coli BW7786 cells containing the GFP-tag reporter and the SICLOPPS library were grown in LB broth with 30 μg/ml chloramphenicol, 100 μg/ml ampicillin, and 0.0002% arabinose at 37° C. to OD600=0.3. IPTG was added to a final concentration of 1 mM, and the culture was grown for 3 hours. Cells were sorted by fluorescence activated cell sorting (FACS) using a Beckman Coulter Elite cell sorter with Autoclone to isolate cells with GFP fluorescence, and selected cells were deposited on agar plates for clonal growth. Cells from each colony were grown in liquid culture as described above and examined by epifluorescence microscopy. The fluorescence intensity and the number of cells with fluorescence above background were scored using ImagePro software (MediaCybernetics). SICLOPPS plasmid DNA was prepared from selected clones and the region encoding the cyclic peptide was sequenced. Peptide sequences were obtained from conceptual translation of the DNA sequences.
Approximately 0.014% of the population had fluorescence over the background level, and 96 of these cells were isolated for clonal growth and characterization. To eliminate any clones that resulted from sorting errors or spurious accumulation of GFP, cells from each colony were cultured and examined by epifluorescence microscopy.

ClpP = ClpP (Escherichia coli, UniProt P0A6G7); experiment: ClpP peptidase assay with Suc-Leu-Tyr-AMC; type: biochemical, E. coli; settings: Suc-Leu-Tyr-AMC substrate
Description: ClpP peptidase activity was measured using the fluorogenic peptide Suc-Leu-Tyr-AMC. 0.1 μM ClpP was incubated with 0.5-1.0 mM Suc-Leu-Tyr-AMC and varying concentrations of IXP1 in buffer P at 37° C. and monitoring the fluorescence of AMC (excitation at 353 nm, emission at 442 nm).

ClpX = ClpX (Escherichia coli, UniProt P0A6H1); experiment: ClpX ATPase assay; type: biochemical, E. coli
Description: ATPase and peptidase assays: ClpX ATPase activity was measured by monitoring the increase in phosphate using a ternary hetero polyacid assay (Chen et al. 2003, Tsinghua Science and Technology 8: 422-427). 1 μM ClpX was incubated with or without 6 μM GFP-tag and varying concentrations of IXP1 in buffer P (4 mM ATP, 50 mM tris-HCl (pH 7.5), 100 mM NaCl, 100 mM KCl, 10 mM MgCl2, 2 mM DTT, and 10% glycerol) at 37° C. At each time point 10 μl was removed from the reaction, added to 265 μl 0.88 M nitric acid for 2 min, and 225 μl color developing solution (44.4 mM bismuth nitrate, 31.1 mM ammonium molybdate, 0.11% ascorbic acid) was added and the absorbance at 700 nm was determined. The rate of ATP hydrolysis was determined from plots of phosphate accumulation versus time.

ClpXP [2] = target: T1, ClpXP (Escherichia coli, UniProt P0A6G7+P0A6H1); experiment: biochemical; type: biochemical, E. coli
Description: (§1) In vitro proteolysis assays: Proteolysis of GFP-tag was performed using a continuous fluorescence assay essentially as previously described (Levchenko et al. 2000, Science 289: 2354-2356). Briefly, loss of GFP fluorescence was monitored at 507 nm after excitation at 395 nm at 30° C. using a Hitachi F-2000 Fluorescence Spectrophotometer in buffer R (25 mM HEPES-KOH (pH 7.6), 5 mM MgCl2, 50 mM KCl, 0.032% NP-40, 10% glycerol, and an ATP regeneration system containing 4 mM ATP (pH 7), 16 mM creatine phosphate and 0.32 mg/ml creatine kinase). Typically, reactions contained […], 0.3 μM ClpP14, and equimolar concentrations (0.2 μM-2.0 μM) GFP-tag and SspB. Degradation of GFP-tag protein was confirmed by SDS-PAGE assays. To examine inhibition of GFP-tag proteolysis, peptides were incubated with ClpXP in reaction buffer for 5 min prior to the addition of GFP-tag. Plots of fluorescence versus time were fit with a single exponential function to determine the initial rate of proteolysis. Kinetic parameters were estimated using Eadie-Hofstee plots.
Proteolysis of GFP-tag in the presence of ClpXP and SspB was monitored by loss of GFP fluorescence in a continuous fluorometric assay. In the absence of cyclic peptide, GFP-tag was degraded with kinetic parameters kcat=[…], KM=0.74±0.04 μM. […] Likewise, no degradation was observed when ClpX or ClpP were omitted from the reaction.

C. crescentus = type: cell-based, Caulobacter crescentus
Description: Antibacterial activity assays: To measure the effects of peptides on bacterial growth, cultures of C. crescentus were diluted to OD600=0.001, peptide was added at various concentrations, the cultures were incubated at 30° C. for 14 h, and the MIC was determined as the lowest concentration of peptide that prevented growth. To determine the MBC, each culture was diluted 1:100 in PYE and 10 μl of the diluted culture was spread onto PYE agar plates, incubated at 30° C. overnight, and the number of colonies on each plate was counted. The MBC was assigned as the concentration of peptide that reduced the number of colonies by 99.9% compared to cultures with no inhibitor.

GFP-tag reporter = GFP-tag reporter fluorescence in cells expressing SGW+5 SICLOPPS clones, epifluorescence microscopy (Example 1); type: cell-based, E. coli
Excerpt: Clonal populations are obtained by spotting the cells with high fluorescence on agar plates, and cells from each colony are screened by epi-fluorescence microscopy for fluorescence intensity. SICLOPPS plasmids from clones that pass the microscopy screen were isolated and sequenced to identify the cyclic peptide that is produced in that clone.
A SICLOPPS library was constructed in which the cyclic peptide contains three constant amino acids, SGW, followed by five random amino acids encoded by NNS codons. This library was introduced into cells containing the GFP-tag reporter, and the expression of the reporter and cyclic peptide were induced. Approximately 690,000 cells were sorted by FACS and the brightest 50 were isolated. These 50 clones were grown individually in fresh medium, the expression of reporter and cyclic peptide was induced, and the culture was observed by epifluorescence microscopy. Two clones produced cultures in which nearly 100% of the cells were highly fluorescent.

ClpXP [3] = target: T1, ClpXP; experiment: In vitro proteolysis of GFP-tag by ClpXP without SspB (Example 3); type: biochemical, E. coli; settings: no SspB
Description: as §1
In the in vitro and in vivo proteolysis reactions above, the proteolytic adaptor SspB binds GFP-tag and tethers it to ClpXP (Levchenko et al. 2000, Science 289: 2354-2356). In principle, IXP1 could act on the GFP-tag.cndot.ClpXP interaction or the SspB.cndot.ClpXP interaction. […]

ClpXP [4] = target: T1, ClpXP; experiment: Peptidase activity of ClpXP against IXP1, reverse-phase HPLC; type: biochemical, E. coli; settings: 60 min, no GFP-tag, HPLC peak area
Description: Peptidase activity against IXP1 was assayed by incubating 200 μM IXP1 with 0.1 μM ClpX6, 0.3 μM ClpP14 and the ATP regeneration system in buffer R at 37° C. Sample were taken after 0, 5, and 60 min, and
separated by reverse-phase HPLC using a Varian Microsorb-MV C18 column developed in a gradient from 0.1% trifluoroacetic acid in water to 0.1% trifluoroacetic acid in acetonitrile. UV absorbance at 280 nm was monitored and the peak corresponding to the IXP1 cyclic peptide was determined by comparison to reactions containing only cyclic IXP1 or linear IXP1. The loss of cyclic IXP1 was determined by integrating the area under the cyclic IXP1 peak.

ClpXP [5] = target: T1, ClpXP; experiment: ClpXP degradation of GFP-tag in the absence of SspB (Examples 1-2); type: biochemical, E. coli; settings: no SspB
Description: (§2) ClpXP Proteolysis: PD buffer contained 25 mM HEPES-KOH (pH 7.6), 5 mM KCl, 5 mM MgCl2, 0.032% NP-40, 5 mM ATP, and 10% glycerol. The ATP regenerating system consisted of 8 mM creatine phosphate and 0.16 mg/ml creatine kinase. Inhibition experiments were performed using a Hitachi F-2000 Fluorescence Spectrophotometer. The rate of GFP-ssrA degradation was monitored at 30° C. for 5 minutes by the loss of fluorescence (excitation 488 nm; emission 507 nm). Competition experiments with increasing concentrations of peptide were performed using GFP-ssrA (0.2 μM), ClpX6 (0.3 ArM), ClpP14 (0.8 μM), and SspB2 (0.3 μM) in PD buffer plus 200 mM KCl and ATP regenerating system. Curve fitting for the competitive inhibition assays were performed using the Scientist program (MicroMath Scientific Software, Inc.).
A priori, there are several steps in the degradation pathway that could be inhibited by the selected cyclic peptides: binding of the substrate-SspB complex to ClpXP, ATPase activity of ClpX, and hydrolysis of the peptide bond by ClpP. Molecules that block the binding of substrate to SspB should not be inhibitors of proteolysis by ClpXP, because ClpXP will degrade tmRNA-tagged substrates in the absence of SspB. To determine if the inhibitors act through SspB, the kinetic assays were repeated in the absence of this proteolytic adaptor.

ClpXP [6] = target: T1, ClpXP; experiment: Proteolysis of λO protein by ClpXP, SDS-PAGE (Example 3); type: biochemical, E. coli
Description: Proteolysis of λO protein was assayed by incubating 1 μM λO with 0.1 μM ClpX6, 0.3 μM ClpP14 in buffer R at 30° C. At various times the reaction was sampled, the reaction was terminated by boiling in SDS-PAGE loading buffer, and analyzed using SDS-polyacrylamide gels stained with Coomassie blue. The intensity of the band corresponding to intact λO protein was measured using ImageQuant software (Molecular Dynamics), and plots of the intensity versus time were fit with single exponential functions to determine the half-life of λO protein.
To determine if IXP1 inhibits proteolysis of ClpXP substrates recognized by an epitope distinct from the tmRNA tag, λO protein was used as an assay substrate. […] Degradation of λO was assayed in the presence and absence of IXP1 by following the loss of intact λO protein on SDS-polyacrylamide gels (FIG. 7).

ClpXP [7] = target: T1, ClpXP; experiment: ClpXP degradation of GFP-tag in the presence of SspB, continuous fluorimetric assay (Examples 1-2); type: biochemical, E. coli; settings: SspB present
Description: as §2
Characterization of ClpXP inhibitors in vitro: Two of the selected cyclic peptides were synthesized in vitro to examine their effects on enzymatic assays. Peptides with the sequence SGWRVQGPL (SEQ ID NO: 1) and SGSKGVLPL (SEQ ID NO: 2) were chemically synthesized in the linear form, circularized, and purified by HPLC. The effects of these peptides on the activity of purified ClpXP were determined in vitro using a continuous fluorimetric assay. GFP-tag, SspB, ClpX and ClpP were each purified from over-expressing strains of E. coli, and degradation of GFP-tag was monitored by loss of fluorescence. In reactions containing all components, GFP-tag was degraded with kinetic parameters kcat=1.79±0.08 min−1, KM=0.74±0.04, similar to the previously published values of 1.44 min^−1 and 0.96 μM. […] For both cyclic peptides, inhibition of ClpXP was reversible, as no inhibition was observed when ClpXP was incubated with peptide at concentrations above the Kr, and dialyzed to remove unbound peptide before addition of enzyme to the reaction. The linear versions of SGSKGVLPL (SEQ ID NO: 2) and SGWRVQGPL (SEQ ID NO: 1) had Kb, values >1 mM (Table 4), so the cyclic architecture is likely to be important for inhibition.

T1 sequence (P0A6G7 15-207): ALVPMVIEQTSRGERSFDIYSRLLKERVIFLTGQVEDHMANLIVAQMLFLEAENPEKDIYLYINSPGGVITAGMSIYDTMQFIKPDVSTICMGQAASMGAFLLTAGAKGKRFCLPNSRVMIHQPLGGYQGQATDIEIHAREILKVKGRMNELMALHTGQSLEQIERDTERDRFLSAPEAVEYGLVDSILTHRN
T1 sequence (P0A6H1 whole entry): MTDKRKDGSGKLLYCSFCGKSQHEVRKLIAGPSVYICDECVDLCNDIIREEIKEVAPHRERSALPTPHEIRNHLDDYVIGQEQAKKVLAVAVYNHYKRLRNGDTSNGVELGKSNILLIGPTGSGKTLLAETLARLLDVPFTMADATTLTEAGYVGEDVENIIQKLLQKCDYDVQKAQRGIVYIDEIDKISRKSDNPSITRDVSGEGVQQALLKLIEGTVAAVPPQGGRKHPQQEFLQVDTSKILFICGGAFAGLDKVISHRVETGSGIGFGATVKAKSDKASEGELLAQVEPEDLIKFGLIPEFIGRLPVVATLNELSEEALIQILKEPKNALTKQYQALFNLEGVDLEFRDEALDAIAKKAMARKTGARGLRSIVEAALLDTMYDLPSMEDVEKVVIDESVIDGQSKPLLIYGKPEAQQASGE
ClpX, sequence (P0A6H1 whole entry): as above
ClpP, sequence (P0A6G7 15-207): as the sequence (P0A6G7 15-207) above

Structure (SMILES) | cell morphology ([1]; compared with filamentous ΔclpX strain) | GFP-tag fluorescence / inhibition in vivo ([1]; compared with ΔclpX strain) | decrease of ClpP peptidase activity (ClpP) | ClpX ATPase activity with GFP-tag included (ClpX; with GFP-tag) | rate of ClpX ATP hydrolysis (ClpX; without GFP-tag, up to 200 μM IXP1) | mode of inhibition of GFP-tag degradation (ClpXP [2]; SspB present) | inhibition of ClpXP proteolysis of GFP-tag in vitro (ClpXP [2]; at the concentrations tested) | MBC (C. crescentus) [µM] | MIC (C. crescentus) [µM] | average fluorescent intensity relative to cultures expressing ICP1 or ICP2 (GFP-tag reporter) | cells highly fluorescent (GFP-tag reporter; induced culture) [%] | effect on GFP-tag degradation by ClpXP in the absence of SspB (ClpXP [3]) | amount of cyclic peptide after incubation with ClpXP (ClpXP [4]) | inhibition of GFP-tag degradation by ClpXP in the absence of SspB (ClpXP [5]) | inhibition of λO degradation by ClpXP (ClpXP [6]) | KI fold lower than the linear XB peptide (ClpXP [7]) [fold] | KI fold lower than the selected cyclic peptide inhibitors (ClpXP [7]) | KI fold lower than the linear XB peptide (ClpXP [2]; SspB present) [fold] | MBC (C. crescentus; C. crescentus, 99.9% colony reduction, listed as cyclic XB) [µM]
N=C(N)NCCC[C@@H]1NC(=O)CNC(=O)[C@H](Cc2ccc(O)cc2)NC(=O)[C@H](Cc2c[nH]c3ccccc23)NC(=O)CNC(=O)[C@H](CO)NC(=O)[C@H](Cc2c[nH]cn2)NC(=O)[C@H](CCCNC(=N)N)NC1=O [IXP1, SGWYGRRH] (HELM PEPTIDE1{G.R.R.H.S.G.W.Y}$PEPTIDE1,PEPTIDE1,1:R1-8:R2$$$V2.0) | slightly filamentous | indistinguishable from the ΔclpX strain; also recorded: fluorescent cells | less than 2% | no effect | not inhibited | uncompetitive inhibition | reduced the rate | 279 ± 23 (≈ 279 µg/mL) | 219 ± 42 (≈ 219 µg/mL) | more than twice | ~100 | still inhibited | did not change; also recorded: unchanged |  |  |  |  |  | 
CC(C)C[C@@H]1NC(=O)[C@H](C)NC(=O)[C@@H]2CCCN2C(=O)[C@H](CCCNC(=N)N)NC(=O)CNC(=O)CNC(=O)[C@H](CCCNC(=N)N)NC(=O)[C@H](CS)NC(=O)[C@H](CCCCN)NC(=O)[C@H](C(C)C)NC(=O)[C@H](C(C)C)NC(=O)[C@H](CCCNC(=N)N)NC1=O [cycXB, CRGGRPALRVVK] (HELM PEPTIDE1{A.L.R.V.V.K.C.R.G.G.R.P}$PEPTIDE1,PEPTIDE1,1:R1-12:R2$$$V2.0) |  |  |  |  |  |  |  |  |  |  |  |  |  | inhibited | did not inhibit | 7 | 2-3 fold | 7 | 40 ± 6 (≈ 51.7 µg/mL)
